Values quoted from earlier work as cited in patent publication US8937081B2, “Statin bioavailability enhancement delivery composition” (PruGen IP Holdings, Inc., priority 2011, dated 2015).

How the values were obtained:
hepatocytes = conditions: in hepatocytes
[1] = among the marketed statins

With CC(C)c1nc(N(C)S(C)(=O)=O)nc(-c2ccc(F)cc2)c1/C=C/[C@@H](O)C[C@@H](O)CC(=O)O [rosuvastatin] as the compound, how does the IC50 (hepatocytes) read?
Its IC50 is “low”.

With COCc1c(C(C)C)nc(C(C)C)c(/C=C/[C@@H](O)C[C@@H](O)CC(=O)O)c1-c1ccc(F)cc1 [cerivastatin] as the compound, how does the “percentage of serious adverse effects” value [1] read?
The value was “largest percentage of serious adverse effects”.
